Data taken from patent publication US6723710B2, “Compositions for inhibiting arginase activity” (The Trustees of the University of Pennsylvania, priority 1997, dated 2004).

B1: Recombinant rat liver arginase (Rattus norvegicus) (protein)
chain: MSSKPKPIEIIGAPFSKGQPRGGVEKGPAALRKAGLVEKLKETEYNVRDHGDLAFVDVPNDSPFQIVKNPRSVGKANEQLAAVVAETQKNGTISVVLGGDHSMAIGSISGHARVHPDLCVIWVDAHTDINTPLTTSSGNLHGQPVAFLLKELKGKFPDVPGFSWVTPCISAKDIVYIGLRDVDPGEHYIIKTLGIKYFSMTEVDKLGIGKVMEETFSYLLGRKKRPIHLSFDVDGLDPVFTPATGTPVVGGLSYREGLYITEEIYKTGLLSGLDIMEVNPTLGKTPEEVTRTVNTAVALTLSCFGTKREGNHKPETDYLKPPK
notes: made in house

Columns and labels:
[1] = tested on: arginase activities of the various tissues; test: arginase activity in tissue homogenates (liver, IAS, rectum, brain) with NO synthase inhibitor; type: biochemical, opossum; details: 80 micromolar; basal and in the presence of L-HO-Arg
Procedure: Tissue samples of the opossum internal anal sphincter muscle (IAS), adjoining rectal tissue, liver, and brain were homogenized using an ULTRATURRAX™ tissue homogenizer (Tekamr, Cincinnati, Ohio) in a solution comprising 10 millimolar Tris-HCl, 150 millimolar KCl, and 25 millimolar MnCl2, at pH 7.4. The homogenates were dialyzed overnight against the same solution. […]
Arginase activity in tissue homogenates was evaluated using the radioactive L-[guanidino^14C]arginine assay of Rüegg and Russell (1980, Anal. Biochem. 102:206-212). […] Urea was separated from non-reacted L-[guanidino-^14C]arginine by treatment with 200 μl of 1:1 v/v slurry of DOWEX™ 50W-X8 in water, and quantitated by adding 200 microliters of the supernatant from the DOWEX™ treatment to 3 milliliters of LIQUISCENT™ (National Diagnostics) for liquid scintillation counting in a Beckman LS 5000CE counter. The data were analyzed using double-reciprocal plots of the initial velocity measurements; standard errors were determined by regression analysis.
Thus, it is possible that tissue variations in inhibition of arginase activities by L-HO-Arg could be due to depletion of added L-HO-Arg by conversion to NO. In order to test this possibility, the effects of L-HO-Arg on arginase activities in the tissue homogenates were determined in the presence of the NO synthase inhibitor L-NNA.

[2] = tested on: internal anal sphincter (IAS) smooth muscle; test: NANC nerve-mediated relaxation of IAS smooth muscle strips by electrical field stimulation; set-up: species or system opossum (Didelphis virginiana); details: L-NNA 3×10^−6 molar
[3] = substrate: N=C(N)Nc1cccc([N+](=O)[O-])c1; test: continuous chromogenic arginase assay with substrate 1-nitro-3-guanidinobenzene (compound 18); type: biochemical, rat; details: other: as substrate, bicine pH 9.0
Procedure: The activity of wild-type arginase was monitored spectrophotometrically using a Pharmacia BIOTECH ULTROSPEC™ 2000. Assays were performed in a solution comprising 100 micromolar MnCl2 and 50 millimolar bicine-NaOH (pH 9.0). […] Eadie-Hofstee plots were used to analyze the data.

Row | effect of L-NNA on arginase activities [1] | Molecule | IAS relaxation in the presence of L-NNA ([2]; 0.5 Hertz EFS) | IAS relaxation in the presence of L-NNA ([2]; 1 Hertz EFS) | IAS relaxation in the presence of L-NNA ([2]; 2 Hertz EFS) | IAS relaxation in the presence of L-NNA ([2]; 5 Hertz EFS) | Km [3]
1 | no significant effect | N=C(NCCC[C@H](N)C(=O)O)N[N+](=O)[O-] [L-NNA, N^ω-nitro-L-arginine] | 0±0% | 0.6±0.6% | 1.8±1.1% | 5.4±2.1% | –
2 | – | B1 | – | – | – | – | 1.6±0.2 millimolar
